For 42 compounds, IC50 results are on record in US20260097047A1, “Small molecule inhibitors of the ribosome biogenesis factor NVL2” (Board of Regents, The University of Texas System, priority 2023, published 2026).

Some results are limits rather than exact numbers.

For one assay, the system named is HCT116 cells. The experiment in a line: Cell viability assay (CellTiter-Glo, 72 hours) in HCT116 human colorectal cancer cells. The format is cell-based. The note with it: Homo sapiens, HCT-116; Table 5; HCT116, 72 hours; read-out: Activity. The procedure:
Cell culture: The HCT116 cell line was obtained from ATCC and cultured in Dulbecco's Modified Eagle's Medium (DMEM)-high glucose (Sigma Aldrich #D5796) supplemented with 10% fetal bovine serum (FBS) (Sigma-Aldrich #F2442) and 2 mM L-Glutamine (Sigma Aldrich #G7513). Cells were cultured at 37° C. in 5% CO2. The identity of all cell lines was confirmed by short tandem repeat (STR) analysis and confirmed to be mycoplasma-free using a PCR based assay (Genatlantis).
Cell viability assay: In 96-well assay plates (Corning #2903), 2,000 cells were plated per well in 100 μL of medium and allowed to adhere overnight. The next day, compounds suspended in DMSO were dispensed to the assayed wells using a D300e Digital Dispenser (Tecan). All wells were normalized to 0.5% DMSO. 72 hours after incubation at 37° C. in 5% CO2, cell viability was assayed using an ATP-based luminescent viability assay, CellTiter-Glo (Promega #G8462). Substrate was mixed 1:1 with phosphate-buffered saline (PBS) supplemented with 1% Triton X-100, and 40 μL of this mixture was added to the assay wells. Plates were shaken on a microplate shaker for 10 minutes at room temperature. Luminescence (CellTiter-Glo) was recorded using a Synergy 2 microplate reader (BioTek). In Prism 9 software (GraphPad), ten-point dose response curves were plotted with baseline-correction to the vehicle control well, and IC50 values were calculated by curve fitting using asymmetric (five parameter), least squares fit.
A general note: Cellular ATP, detected with luciferase, serves as a proxy for viable cell number.
For the compound `CC#CCN1C(=O)c2ccc(C#N)cc2Sc2cc(Nc3cccnn3)ccc21` [10-(But-2-yn-1-yl)-11-oxo-7-(pyridazin-3-ylamino)-10,11-dihydrodibenzo[b,f][1,4]thiazepine-3-carbonitrile], the IC50 lay within 1 to 5 µM.
Still for that read-out and setting: then `CC#CCN1C(=O)c2ccccc2Cc2cc(Nc3ncccc3C)ccc21` [5-(But-2-yn-1-yl)-2-((3-methylpyridin-2-yl)amino)-5H-dibenzo[b,e]azepin-6 (11H)-one], with less than 0.5 µM; and `CC#CCN1C(=O)c2ccccc2Sc2cc(Nc3ccccn3)ccc21` [10-(But-2-yn-1-yl)-7-(pyridin-2-ylamino)dibenzo[b,f][1,4]thiazepin-11 (10H)-one], with less than 0.5 µM; and `CC#CCN1C(=O)c2ccc(C#N)cc2Sc2cc(Nc3nnccc3C#N)ccc21` [10-(But-2-yn-1-yl)-7-((4-cyanopyridazin-3-yl)amino)-11-oxo-10,11-dihydrodibenzo[b,f][1,4]thiazepine-3-carbonitrile], with less than 0.5 µM.
Still for that read-out and setting: then `CC#CCN1C(=O)c2ccccc2Sc2cc(Nc3ccncc3C#N)ccc21` [4-((10-(But-2-yn-1-yl)-11-oxo-10,11-dihydrodibenzo[b,f][1,4]thiazepin-7-yl)amino) nicotinonitrile], with less than 0.5 µM.
As to `CC#CCN1C(=O)c2ccccc2Sc2cc(Nc3nccc(-c4cccnc4)n3)ccc21` [10-(But-2-yn-1-yl)-7-((4-(pyridin-3-yl)pyrimidin-2-yl)amino)dibenzo[b,f][1,4]thiazepin-11 (10H)-one], the IC50 is less than 0.5 µM.

Staying with this assay, now noted: Homo sapiens, HCT-116; Table 6; HCT116, 72 hours; read-out: Activity.
Take `CC#CCN1C(=O)c2ccccc2Sc2cc(NC3COCC3C)cnc21` (stereo not drawn) [11-(But-2-yn-1-yl)-3-((4-methyltetrahydrofuran-3-yl)amino)benzo[f]pyrido[3,2-b][1,4]thiazepin-10(11H)-one]: the IC50 is less than 0.5 µM.

The same assay, now with this note: Homo sapiens, HCT-116; Table 9; HCT116, 72 hours; read-out: Activity.
`CC#CCN1C(=O)c2ccccc2C(C)(O)c2cc(NC(=O)c3ccc(OC)cc3)ccc21` (stereo not drawn) [Table 9: —CH2CCMe; 4-MeOPh; CMeOH, N-(5-(But-2-yn-1-yl)-11-hydroxy-11-methyl-6-oxo-6,11-dihydro-5H-dibenzo[b,e]azepin-2-yl)-4-methoxybenzamide]: the IC50 is less than 0.5 µM.
With `CC#CCN1C(=O)c2ccccc2C(C#N)c2cc(NC(=O)c3ccc(OC)cc3)ccc21` (stereo not drawn) [Table 9: —CH2CCMe; 4-MeOPh; CHCN, N-(5-(But-2-yn-1-yl)-11-cyano-6-oxo-6,11-dihydro-5H-dibenzo[b,e]azepin-2-yl)-4-methoxybenzamide], the IC50 was less than 0.5 µM.

The assay is the same for the next values; noted with them: Table 3; HCT116, 72 hours; read-out: Activity.
Consider `CC#CCN1C(=O)c2ccccc2Sc2cc(NC(=O)N[C@H]3C[C@H](OC)C3)ccc21` [Table 3: —CH2CCMe; trans-3-MeOcBu; CH/CH], for which the IC50 is less than 0.5 µM.
On the same count and under the same terms, then `CC#CCN1C(=O)c2ccccc2Sc2cc(NC(=O)Nc3ccc4scnc4c3)cnc21`, with less than 0.5 µM.

The assay is the same for the next values; noted with them: Table 4; HCT116, 72 hours; read-out: Activity.
`CC#CCN1C(=O)c2ccccc2Sc2cc(NC(=S)Nc3ccc4oc(=O)n(C)c4c3)cnc21`: the IC50 was less than 0.5 µM.

The same assay, now with this note: Table 5; HCT116, 72 hours; read-out: Activity.
`C#CCN1C(=O)c2ccccc2Sc2cc(Nc3ncc(C)nc3C)ccc21`: the IC50 was less than 0.5 µM.
Same read-out and setting: then `CC#CCN1C(=O)c2ccccc2Sc2cc(Nc3nccc(C#N)c3C)cnc21`, with less than 0.5 µM; and `CC=CCN1C(=O)c2ccccc2Sc2cc(Nc3nccnc3C)cnc21`, with less than 0.5 µM.

Still in this assay, the particulars now being: Table 6; HCT116, 72 hours; read-out: Activity.
Regarding `C#CCN1C(=O)c2ccccc2Sc2cc(NC3CC(OC)C3)ccc21` (stereo not drawn) [Table 6: —CH2CCH; 3-MeOcBu; CH/CH; S], the IC50 was less than 0.5 µM.
For `CC#CCN1C(=O)c2ccccc2Sc2cc(NCCCOC)ccc21` [Table 6: —CH2CCMe; (CH2)3OMe; CH/CH; S], the IC50 was less than 0.5 µM.
For the compound `CC#CCN1C(=O)c2ccccc2Sc2cc(NC34CC(OC)(C3)C4)cnc21`, the IC50 is less than 0.5 µM.
Same read-out and setting: then `COC1CC(Nc2ccc3c(c2)Sc2ccccc2C(=O)N3CC#CCl)C1` (stereo not drawn) [Table 6: —CH2CCCl; 3-MeOcBu; CH/CH; S], with less than 0.5 µM; and `CC#CCN1C(=O)c2ccccc2Sc2cc(NC3CC4(CC(=O)C4)C3)ccc21`, with less than 0.5 µM.

The assay is the same for the next values; noted with them: Table 7; cell viability assay, CellTiter-Glo, 72 hours; scaffold drawing 42 with R^2, R^3, X/Y, Z; read-out: Activity.
Regarding `C=CCCCOCCN1C(=O)c2ccccc2Sc2cc(NC(=O)c3ccoc3)ccc21`, the IC50 was less than 0.5 µM.
`C=CCN1C(=O)c2ccc(F)cc2Sc2cc(NC(=O)c3ccc4scnc4c3)ccc21`: the IC50 was less than 0.5 µM.
Still for that read-out and setting: then `COCCN1C(=O)c2ccccc2Sc2cc(NC(=O)c3ccc(Cl)c(OC)c3)ccc21` [—(CH2)2OMe; 3-MeO,4-ClPh; CH/CH; S], with 0.5 to 1 µM; and `COCCN1C(=O)c2ccccc2Sc2cc(NC(=O)c3ccc(F)c(F)c3)ccc21` [—(CH2)2OMe; 3,4-F2Ph; CH/CH; S], with 1 to 5 µM.

Still in this assay, the particulars now being: Table 8; analogs of scaffold drawing 43 defined by R^2, R^3, X/Y, W; read-out: Activity (IC50 class, cell viability assay).
As to `CC#CCN1C(=O)c2cc(F)ccc2Sc2cc(NC(=O)[C@@H]3C[C@H]3CO)ccc21` (relative stereo) [—CH2CCMe; trans-2-HOCH2-cPr; CH/CF; CH], the IC50 is less than 0.5 µM.
With `C#CCN1C(=O)c2cc(F)ccc2Sc2cc(NC(=O)C3CC(COC)C3)ccc21` (stereo not drawn) [—CH2CCH; 3-MeOCH2-cBu; CH/CF; CH], the IC50 was less than 0.5 µM.
Still for that read-out and setting: then `CC#CCN1C(=O)c2ccccc2Sc2cc(NC(=O)OCCOC)cnc21` [—CH2CCMe; O(CH2)2OMe; CH/CH; N], with less than 0.5 µM; and `CC#CCN1C(=O)c2ccc(C#N)cc2Sc2cc(NC(=O)[C@@H]3C[C@H]3COC)ccc21` (relative stereo) [—CH2CCMe; trans-2-MeOCH2-cPr; CCN/CH; CH], with less than 0.5 µM.
Still for that read-out and setting: then `CC#CCN1C(=O)c2ccc(Cl)cc2Sc2cc(NC(=O)C34CC(O)(C3)C4)ccc21`, with less than 0.5 µM; and `CC#CCN1C(=O)c2ccccc2Sc2cc(NC(=O)C(C)CCOC)ccc21` (stereo not drawn) [—CH2CCMe; MeO(CH2)2CHMe-; CH/CH; CH], with less than 0.5 µM; and `C#CCN1C(=O)c2ccccc2Sc2cc(NC(=O)C3CC4(CC(=NO)C4)C3)cnc21` (stereo not drawn), with less than 0.5 µM.
Same read-out and setting: then `CC#CCN1C(=O)c2ccccc2Sc2cc(NC(=O)C34CC(C#N)(C3)C4)cnc21`, with less than 0.5 µM; and `CC#CCN1C(=O)c2ccccc2Sc2cc(NC(=O)C=CCO)ccc21` [—CH2CCMe; CH—CHCH2OH; CH/CH; CH], with less than 0.5 µM.
`COC(=O)[C@@H]1C[C@H]1C(=O)Nc1cnc2c(c1)Sc1ccccc1C(=O)N2CC#CC1CC1` (relative stereo) [—CH2CC^cPr; trans-2-MeO2C-cPr; CH/CH; N]: the IC50 is less than 0.5 µM.
Same read-out and setting: then `C#CCN1C(=O)c2ccccc2Sc2cc(NC(=O)C3CC4(CC(=NO)C4)C3)ccc21` (stereo not drawn), with less than 0.5 µM.
Same read-out and setting: then `O=C(CC1COC1)Nc1ccc2c(c1)Sc1ccccc1C(=O)N2CC#CC1CC1` [—CH2CC^cPr; (oxetan-3-yl)CH2; CH/CH; CH], with less than 0.5 µM; and `CC#CCN1C(=O)c2ccccc2Sc2cc(NC(=O)C3CNC(=O)C3)ccc21` (stereo not drawn) [—CH2CCMe; 5-oxopyrrolidin-3-yl; CH/CH; CH], with less than 0.5 µM.

The assay is the same for the next values; noted with them: Table 9; HCT116, 72 hours; read-out: Activity.
Take `CC1c2ccccc2C(=O)N(CC#CC2CC2)c2ccc(NC(=O)[C@H]3C[C@H](O)C3)cc21` (stereo partly drawn): the IC50 was less than 0.5 µM.
The same measure, in the same setting: then `O=C(Nc1ccc2c(c1)Cc1ccccc1C(=O)N2CC#CC1CC1)C1CC2(CC(=NO)C2)C1` (stereo not drawn), with less than 0.5 µM; and `CC#CCN1C(=O)c2ccccc2C(C)c2cc(NC(=O)C3CC3CO)ccc21` (stereo not drawn), with less than 0.5 µM; and `CC#CCN1C(=O)c2ccccc2C(C#N)c2cc(NC(=O)[C@H]3C[C@H](OC)C3)ccc21` (stereo partly drawn) [Table 9: —CH2CCMe; trans-3-MeOcBu; CHCN], with less than 0.5 µM.

Staying with this assay, now noted: cell viability assay; Table 10 analogs of scaffold drawing 45 defined by R2, R3, X/Y, W; read-out: Activity.
For the compound `CC#CCN1C(=O)c2ccc(Cl)cc2Sc2cc(NC(=S)C34CC(OC)(C3)C4)ccc21`, the IC50 is less than 0.5 µM.
